Results published in ChEMBL document CHEMBL3044672, “N9- and N7-(Chloromethyl Phenymethyl)Chloropurine Derivatives from , '-Dichloroxylenes: Synthesis and Anticancer Activity” (2005).

What was measured:
Format in all cases: functional
[1] = system: MCF7; assay: Cytotoxicity against Homo sapiens (human) MCF7 cells assessed as cell growth at 10^-4 M after 48 hr by Alamar blue assay; conditions: MCF7, 48 h, read-out: Activity
[2] = system: NCI-H23; assay: Cytotoxicity against Homo sapiens (human) NCI-H23 cells after 48 hr by sulforhodamine B assay; conditions: NCI-H23, 48 h
[3] = system: MOLT-4; assay: Cytotoxicity against Homo sapiens (human) MOLT4 cells after 48 hr by sulforhodamine B assay; conditions: MOLT-4, 48 h
[4] = system: SF-268; assay: Cytotoxicity against Homo sapiens (human) SF268 cells after 48 hr by sulforhodamine B assay; conditions: SF-268, 48 h
[5] = system: K562; assay: Cytotoxicity against Homo sapiens (human) K562 cells after 48 hr by sulforhodamine B assay; conditions: K562, 48 h
[6] = system: KM12; assay: Cytotoxicity against Homo sapiens (human) KM12 cells after 48 hr by sulforhodamine B assay; conditions: KM12, 48 h
[7] = system: RPMI-8226; assay: Cytotoxicity against Homo sapiens (human) RPMI8226 cells after 48 hr by sulforhodamine B assay; conditions: RPMI-8226, 48 h
[8] = system: SK-OV-3; assay: Cytotoxicity against Homo sapiens (human) SKOV3 cells after 48 hr by sulforhodamine B assay; conditions: SK-OV-3, 48 h
[9] = system: NCI-H460; assay: Cytotoxicity against Homo sapiens (human) NCI-H460 cells assessed as cell growth at 10^-4 M after 48 hr by Alamar blue assay; conditions: NCI-H460, 48 h, read-out: Activity
[10] = system: RXF 393; assay: Cytotoxicity against Homo sapiens (human) RXF393 cells after 48 hr by sulforhodamine B assay; conditions: RXF 393, 48 h
[11] = system: CCRF-CEM; assay: Cytotoxicity against Homo sapiens (human) CCRF-CEM cells after 48 hr by sulforhodamine B assay
[12] = Cytotoxicity against Homo sapiens (human) NCI-ADR-RES cells after 48 hr by sulforhodamine B assay
[13] = system: SNB-75; assay: Cytotoxicity against Homo sapiens (human) SNB75 cells after 48 hr by sulforhodamine B assay; conditions: SNB-75, 48 h
[14] = system: Hs-578T; assay: Cytotoxicity against Homo sapiens (human) Hs 578T cells after 48 hr by sulforhodamine B assay
[15] = system: HCT-116; assay: Cytotoxicity against Homo sapiens (human) HCT116 cells after 48 hr by sulforhodamine B assay; conditions: HCT-116, 48 h
[16] = system: UACC-257; assay: Cytotoxicity against Homo sapiens (human) UACC257 cells after 48 hr by sulforhodamine B assay; conditions: UACC-257, 48 h
[17] = system: LOX IMVI; assay: Cytotoxicity against Homo sapiens (human) LOXIMVI cells after 48 hr by sulforhodamine B assay
[18] = system: MDA-MB-231; assay: Cytotoxicity against Homo sapiens (human) MDA-MB-231 cells after 48 hr by sulforhodamine B assay; conditions: MDA-MB-231, 48 h
[19] = system: TK-10; assay: Cytotoxicity against Homo sapiens (human) TK10 cells after 48 hr by sulforhodamine B assay; conditions: TK-10, 48 h
[20] = system: HCT-15; assay: Cytotoxicity against Homo sapiens (human) HCT15 cells after 48 hr by sulforhodamine B assay; conditions: HCT-15, 48 h
[21] = system: A549; assay: Cytotoxicity against Homo sapiens (human) A549 cells after 48 hr by sulforhodamine B assay; conditions: A549, 48 h
[22] = system: OVCAR-4; assay: Cytotoxicity against Homo sapiens (human) OVCAR4 cells after 48 hr by sulforhodamine B assay; conditions: OVCAR-4, 48 h
[23] = system: HCC 2998; assay: Cytotoxicity against Homo sapiens (human) HCC2998 cells after 48 hr by sulforhodamine B assay; conditions: HCC 2998, 48 h
[24] = system: HOP-62; assay: Cytotoxicity against Homo sapiens (human) HOP62 cells after 48 hr by sulforhodamine B assay; conditions: HOP-62, 48 h
[25] = system: UACC-62; assay: Cytotoxicity against Homo sapiens (human) UACC62 cells after 48 hr by sulforhodamine B assay; conditions: UACC-62, 48 h
[26] = system: NCI-H522; assay: Cytotoxicity against Homo sapiens (human) NCI-H522 cells after 48 hr by sulforhodamine B assay; conditions: NCI-H522, 48 h
[27] = read-out: LC50 (the source's name)

ClCc1ccccc1Cn1cnc2c(Cl)nc(Cl)nc21
growth at 100 µM [1]: 0%
GI50 [2]: 1510 nM
TGI [2]: 3090 nM
CC50 [2, 27]: 6310 nM
GI50 [3]: 200 nM
TGI [3]: 630 nM
CC50 [3, 27]: 3540 nM
GI50 [4]: 1770 nM
TGI [4]: 4160 nM
GI50 [5]: 150 nM
TGI [5]: 370 nM
CC50 [5, 27]: 910 nM
GI50 [6]: 1470 nM
TGI [6]: 2950 nM
CC50 [6, 27]: 5880 nM
GI50 [7]: 380 nM
TGI [7]: 1540 nM
GI50 [8]: 1820 nM
LC50 [8]: 6910 nM
TGI [8]: 3540 nM
growth at 100 µM [9]: 0%
GI50 [10]: 100 nM
TGI [10]: 490 nM
GI50 [11]: 30 nM
TGI [11]: 90 nM
CC50 [11, 27]: 470 nM
GI50 [12]: 1510 nM
LC50 (concentration killing 50% of cells) [12]: 6160 nM
TGI [12]: 3020 nM
GI50 [13]: 1540 nM
TGI [13]: 3540 nM
GI50 [14]: 1170 nM
LC50 [14]: > 100000 nM
TGI [14]: 3540 nM
GI50 [15]: 190 nM
TGI [15]: 380 nM
CC50 [15, 27]: 750 nM
GI50 [16]: 1820 nM
LC50 (concentration killing 50% of cells) [16]: 8510 nM
TGI [16]: 3890 nM
GI50 [17]: 150 nM
LC50 [17]: 850 nM
TGI [17]: 360 nM
GI50 [18]: 330 nM
LC50 [18]: 3980 nM
TGI [18]: 1380 nM
GI50 [19]: 1450 nM
TGI [19]: 2880 nM
CC50 [19, 27]: 5620 nM
GI50 [20]: 330 nM
TGI [20]: 1200 nM
CC50 [20, 27]: 4780 nM
GI50 [21]: 2230 nM
TGI [21]: 4670 nM
GI50 [22]: 1770 nM
TGI [22]: 3630 nM
TGI [23]: 3380 nM
CC50 [23, 27]: 6160 nM
GI50 [24]: 2040 nM
TGI [24]: 3630 nM
CC50 [24, 27]: 6450 nM
GI50 [25]: 1310 nM
LC50 (concentration causing 50% net cell kill) [25]: 5240 nM
TGI [25]: 2630 nM
GI50 [26]: 580 nM
TGI [26]: 1990 nM
CC50 [26, 27]: 6760 nM
